Where two headings read alike, the source gives them in different places.
Assays:
[1] = system: colorectal cancer cell line SW620; experiment: Synergy experiment of Compound 29 and 2DG, cell viability; type: cell-based
Method: SW620 cells were plated (96-well) in triplicate at 500 cells per well for testing (n=3) with 5 mM 2-DG and different concentrations of compound 29 (0-10 uM). Medium was changed once on day 3. On day 7, the CellTiter-Glo Luminescent Cell Viability Assay (Promega) was performed to measure the response. For cell viability assay, two independent experiments have been done.

MOLM-14 xenograft = experiment: MOLM-14 mouse xenograft model; type: in vivo; settings: 50 mg/kg orally b.i.d.
Method: 40 athymic nude mice (Taconic Biosciences) were injected with 5×10^6 MOLM-14 cells in 50% matrigel s.c. in flank. Cell Injection Volume is 0.2 ml/mouse for MOLM-14. Age of mice at start date is 12-14 weeks. Perform a pair match when tumors grows after two weeks and begin treatment. Compound 29 was dissolved in saline and was given orally twice a day on a schedule of five days on/two days off for three weeks. Body weight and tumor size were measured every other day when mice being treated. After the last administration, mice were euthanized for tumor collection. […] In the MOLM-14 xenograft model, mice were treated with compound 29 at 50 mg/kg for 21 days (orally, b.i.d). The tumor volume from control and vehicle group was measured. […] Body weights of mice in both groups were measured and plotted.

RS4;11 = experiment: AML cell viability (CellTiter-Glo, day 7); type: cell-based; settings: Homo sapiens
Method: (§1) MV-4-11 cell (ATCC CRL-9591), RS4;11 (ATCC CRL-1873) and TG-1 (ATCC CRL1608) were acquired from ATCC. MOLM14 (ACC777) was acquired from DSMZ. All cells were plated (96-well) in triplicate at 5000 cells per well for testing (n=3) with compound. On day 3, an equal volume for all wells was split-back with fresh media and compound. On day 7, the CellTiter-Glo Luminescent Cell Viability Assay (Promega) was performed to measure the response. For cell viability assay, two independent experiments have been done.

MOLM-14 = experiment: AML cell viability (CellTiter-Glo, day 7); type: cell-based; settings: Homo sapiens
Method: as §1

TG-1 = experiment: AML cell viability (CellTiter-Glo, day 7); type: cell-based
Method: as §1

MV-4-11 = experiment: AML cell viability (CellTiter-Glo, day 7); type: cell-based; settings: Homo sapiens
Method: as §1

CSNK2A1 (CK2 alpha 1) = CSNK2A1 (CK2 alpha 1) (Homo sapiens (Human), UniProt P68400); experiment: CK2 alpha 1 enzymatic activity inhibition (Z'-LYTE); type: biochemical; settings: read-out: CK2a IC50
Method: CK2 Alpha 1 Enzymatic Activity Inhibition: Determination of IC50 Values for Selected Compounds
The half maximal inhibitory concentration (IC50) with respect to CK2 alpha 1 inhibition was determined for the compounds of the invention by using Z′-LYTE™ from ThermoFisher Scientific's SelectScreen™ Biochemical Kinase Profiling Service (Waltham, MA). Compounds were screened in 1% DMSO (final) in the well. For 10 point titrations, 3-fold serial dilutions were conducted from the starting concentration. The 2×CSNK2A1 (CK2 alpha 1)/Ser/Thr 11 mixture is prepared in 50 mM HEPES pH 7.5, 0.01% BRIJ-35, 10 mM MgCl2, 1 mM EGTA. The black 384-well plate (Corning Cat. #4514) were used for the assay. 100 nL of 100× test compound in 100% DMSO, 2.4 uL of kinase buffer (50 mM HEPES pH 7.5, 0.01% BRIJ-35, 10 mM MgCl2, 1 mM EGTA), 5 uL of 2×CSNK2A1 (CK2 alpha 1)/Ser/Thr 11 mixture, and 2.5 uL of 4×ATP solution were mixed and agitated for 30 seconds. Then the Kinase Reaction was incubated at room temperature for 60 minutes. The final 10 uL Kinase Reaction consisted of 0.68-25.7 ng CSNK2A1 (CK2 alpha 1) and 2 μM Ser/Thr 11 in 50 mM HEPES pH 7.5, 0.01% BRIJ-35, 10 mM MgCl2, 1 mM EGTA. After the 1 hour Kinase Reaction incubation, 5 uL of a 1:16 dilution of Development Reagent B is added. After 30 second of plate shake, the reaction plate was incubated for another 60 min at room temperature. Then the plate was read on a fluorescence plate reader (CLARIOstar, BMG Labtech, Germany) and data was analyzed using XLfit from IDBS. The dose response curve was curve fit to model number 205 (sigmoidal dose-response model).

[2] = system: MOLM-14 AML cancer cell line; experiment: Western blot of treated cells; type: cell-based; settings: MOLM-14, 30 nM up to 3 μM, 24 hours and 48 hours
MV-4-11 cancer cell line = experiment: Western blot of treated cells; type: cell-based
Method: For cell lines: All cells were plated (6-well) at 5×10^5 cells per well with medium containing 1% FBS overnight. And then Compound 29 was added in different concentrations with medium containing 1% FBS. After 16 hours, cells were lysed in M-per Mammalian Protein Extraction Reagent (78501, Thermo Fisher Scientific) containing protease and phosphatase inhibitors (88669, Thermo Fisher Pierce). Total protein concentration was measured using the Pierce BCA protein Assay Kit (#23227).
Proteins were separated on SDS-PAGE and transferred to nitrocellulose membrane. Immunoblotting were performed using specific antibodies: phosphor-Stat1-pS727 (8826, Cell signaling), total-Stat1 (14994, Cell signaling), Phospho-Stat3 (Tyr705) (9131, Cell signaling), Stat3 (9139, Cell signaling), pSTAT5-pS726 (ab128896, abcam), stat5 (94205, cell signaling), YAP (14074, Cell signaling), CYR61(14479, Cell signaling), CTGF (ab6992, Abcam), c-Myc (13987, Cell signaling), Mcl-1 (94296, Cell signaling) and GAPDH (AM4300, Invitrogen). (FIG. 1A, FIG. 1B, FIG. 1C). MV-4-11 cancer cell line was treated with compound 29 at various concentrations (30 nM up to 10 μM) for 24 hours and 48 hours, respectively.

CSNK2A1 (CK2 alpha 1), sequence (P68400 whole entry): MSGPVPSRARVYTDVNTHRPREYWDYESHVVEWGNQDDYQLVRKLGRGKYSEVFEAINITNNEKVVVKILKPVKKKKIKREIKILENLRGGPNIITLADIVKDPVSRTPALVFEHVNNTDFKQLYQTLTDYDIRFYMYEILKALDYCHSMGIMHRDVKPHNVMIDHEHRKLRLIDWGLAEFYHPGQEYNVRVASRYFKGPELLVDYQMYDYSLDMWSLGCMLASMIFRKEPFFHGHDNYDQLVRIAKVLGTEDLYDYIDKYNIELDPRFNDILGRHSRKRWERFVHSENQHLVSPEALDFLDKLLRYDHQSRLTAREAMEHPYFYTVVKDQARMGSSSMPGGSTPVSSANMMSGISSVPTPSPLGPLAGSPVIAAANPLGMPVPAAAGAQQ

IC50 ([1]; Homo sapiens, SW-620, 168 h, SW620, without 2DG, day 7, read-out: Cell viability IC50 of Compound 29 alone): 1 to 10 µM
weight loss (MOLM-14 xenograft; during treatment): < 5%
IC50 (RS4;11; 168 h, RS4;11, day 7, read-out: Cell viability IC50): < 1000 nM
IC50 (RS4;11; RS4;11, text statement, read-out: potency in cell viability assay): < 1000 nM
IC50 (MOLM-14; 168 h, MOLM-14, day 7, read-out: Cell viability IC50): < 1000 nM
IC50 (MOLM-14; MOLM-14, text statement, read-out: potency in cell viability assay): < 1000 nM
IC50 (MV-4-11; MV4-11, 168 h, MV-4-11, day 7, read-out: Cell viability IC50): < 1000 nM
IC50 (MV-4-11; MV4-11, MV-4-11, text statement, read-out: potency in cell viability assay): < 1000 nM
IC50 (CSNK2A1 (CK2 alpha 1)): < 300 nM
Structure (SMILES): Nc1nccc2c(Br)cc3cc(C(=O)[O-])ccc3c12.[Na+] [Compound 29, Sodium 1-amino-5-bromobenzo[h]isoquinoline-8-carboxylate]
Synergy with 2DG in viability assay ([1]; SW620, 5 mM 2DG): synergizes with 2DG
Growth of tumors (tumor volume) (MOLM-14 xenograft; 21 days): greatly inhibited
IC50 (TG-1; TG1, 168 h, TG-1, day 7, read-out: Cell viability IC50): < 1000 nM
IC50 (TG-1; TG1, TG-1, text statement, read-out: potency in cell viability assay): < 1000 nM
level of p-STAT1(Ser727), p-STAT3(Tyr705), p-STAT5(Ser726) and YAP [2]: down regulate
level of p-STAT1(Ser727), p-STAT3(Tyr705), p-STAT5(Ser726) (MV-4-11 cancer cell line; MV-4-11, 30 nM up to 10 μM, 24 hours and 48 hours): dose-response down regulation
level of YAP, CYR61, CTGF, C-MYC, and MCL-1 (MV-4-11 cancer cell line; MV-4-11, 48 hours): down regulate
